pIC50: −log10 of the molar value.
Biological target: T1, 3-hydroxy-3-methylglutaryl-coenzyme A reductase (Homo sapiens, UniProt P04035)
T1 sequence (P04035 whole entry): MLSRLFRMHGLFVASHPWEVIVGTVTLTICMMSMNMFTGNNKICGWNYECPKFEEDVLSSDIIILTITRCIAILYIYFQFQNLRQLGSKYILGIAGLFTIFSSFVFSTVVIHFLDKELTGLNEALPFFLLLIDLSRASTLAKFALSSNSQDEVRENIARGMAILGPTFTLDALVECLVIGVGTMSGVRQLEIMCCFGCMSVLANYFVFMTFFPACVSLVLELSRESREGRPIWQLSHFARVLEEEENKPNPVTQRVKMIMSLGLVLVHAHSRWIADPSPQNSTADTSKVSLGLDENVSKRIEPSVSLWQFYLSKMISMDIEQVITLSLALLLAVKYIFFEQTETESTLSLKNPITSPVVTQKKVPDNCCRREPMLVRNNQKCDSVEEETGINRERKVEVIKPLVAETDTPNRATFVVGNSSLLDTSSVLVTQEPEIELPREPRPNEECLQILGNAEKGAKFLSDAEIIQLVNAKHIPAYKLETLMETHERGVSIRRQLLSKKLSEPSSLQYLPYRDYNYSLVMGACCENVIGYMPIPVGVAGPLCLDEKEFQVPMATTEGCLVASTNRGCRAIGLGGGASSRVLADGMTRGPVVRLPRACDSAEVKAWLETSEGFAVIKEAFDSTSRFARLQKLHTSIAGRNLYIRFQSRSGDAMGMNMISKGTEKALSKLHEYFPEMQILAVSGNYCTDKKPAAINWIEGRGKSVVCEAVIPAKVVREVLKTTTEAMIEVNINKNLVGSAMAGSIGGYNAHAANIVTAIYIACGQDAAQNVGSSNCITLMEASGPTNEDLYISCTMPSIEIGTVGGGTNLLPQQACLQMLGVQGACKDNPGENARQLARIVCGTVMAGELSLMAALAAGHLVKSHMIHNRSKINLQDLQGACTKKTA
Assay: Inhibitory concentration against 3-hydroxy-3-methylglutaryl-CoA reductase

Row | Structure (SMILES) | pIC50
1 | O=C(O)C[C@H](O)C[C@H](O)/C=C/n1c(C(F)(F)F)nc(-c2ccc(F)cc2)c1-c1ccc(F)cc1 | 8.10
2 | Cc1cc(C)cc(-c2c(-c3ccc(F)cc3)nc(C(C)C)n2/C=C/[C@@H](O)C[C@@H](O)CC(=O)O)c1 | 8.14
3 | CC(C)c1cc(-c2cccc(Cl)c2)c(-c2ccc(F)cc2)n1/C=C/[C@@H](O)C[C@@H](O)CC(=O)O | 8.06
4 | Cc1cc(-c2nc(C(C)C)n(/C=C/[C@@H](O)C[C@@H](O)CC(=O)O)c2-c2ccc(F)cc2)cc(C)c1Cl | 8.06
5 | CC(C)c1cc(-c2ccncc2)c(-c2ccc(F)cc2)n1/C=C/[C@@H](O)C[C@@H](O)CC(=O)O | 8.08
6 | CC(C)c1cc(-c2cccc(Br)c2)c(-c2ccc(F)cc2)n1/C=C/[C@@H](O)C[C@@H](O)CC(=O)O | 8.03
7 | CC(C)n1c(/C=C/C(O)CC(O)CC(=O)O)c(-c2ccc(F)cc2)c2ccccc21 (stereo not drawn) [FLUVASTATIN] | 7.55
8 | CN(C)c1nc(-c2ccc(F)cc2)c(-c2ccc(F)cc2)n1/C=C/[C@@H](O)C[C@@H](O)CC(=O)O | 8.09
9 | CC(C)c1nc(-c2ccc(F)cc2)c(-c2ccc(F)cc2)n1/C=C/[C@H](O)C[C@@H](O)CC(=O)O | 8.24
10 | CC(C)c1nc(-c2ccc(F)cc2)c(-c2ccc(F)cc2)n1/C=C/[C@H](O)C[C@H](O)CC(=O)O | 8.21
11 | CC(C)(C)c1nc(-c2ccc(F)cc2)c(-c2ccc(F)cc2)n1/C=C/[C@@H](O)C[C@@H](O)CC(=O)O | 8.09
12 | Cc1cc(F)ccc1-c1c(-c2ccc(F)cc2)nc(C(C)C)n1/C=C/[C@@H](O)C[C@@H](O)CC(=O)O | 8.08
13 | CC[C@H](C)C(=O)O[C@H]1CCC=C2C=C[C@H](C)[C@H](CC[C@@H]3C[C@@H](O)CC(=O)O3)[C@H]21 [MEVASTATIN] | 7.64
14 | CC(C)c1nc(-c2ccc(F)cc2)c(-c2ccc(F)cc2)n1/C=C/[C@@H](O)C[C@@H](O)CC(=O)O | 8.05
15 | CC(C)c1cc(-c2ccccc2)c(-c2ccc(F)cc2)n1/C=C/[C@@H](O)C[C@@H](O)CC(=O)O | 8.06
16 | Cc1cc(-c2c(-c3ccc(F)cc3)nc(C(C)C)n2/C=C/[C@@H](O)C[C@@H](O)CC(=O)O)cc(C)c1F | 8.12
17 | CC(C)c1nc(-c2cccc(S(C)(=O)=O)c2)c(-c2ccc(F)cc2)n1/C=C/[C@@H](O)C[C@@H](O)CC(=O)O | 8.06

Row | Structure (SMILES) | pIC50
18 | CC(C)c1nc(N(C)S(C)(=O)=O)nc(-c2ccc(F)cc2)c1/C=C/[C@@H](O)C[C@@H](O)CC(=O)O [ROSUVASTATIN] | 8.30
19 | CC(C)c1cc(-c2ccc(F)cc2)c(-c2ccc(F)cc2)n1/C=C/[C@@H](O)C[C@@H](O)CC(=O)O (stereo in doubt; 29) | 8.16
20 | CC(C)c1nc(-c2cccnc2)c(-c2ccc(F)cc2)n1/C=C/[C@@H](O)C[C@@H](O)CC(=O)O | 8.05
21 | CC(C)c1cc(-c2ccc(F)cc2)c(-c2cccc(Cl)c2)n1/C=C/[C@@H](O)C[C@@H](O)CC(=O)O | 8.15
22 | CC(C)c1nc(-c2ccc(F)cc2)c(-c2cccc(Cl)c2)n1/C=C/[C@@H](O)C[C@@H](O)CC(=O)O | 8.09
23 | Cc1nc(-c2ccc(F)cc2)c(-c2ccc(F)cc2)n1/C=C/[C@@H](O)C[C@@H](O)CC(=O)O | > 8.15
24 | COCc1c(C(C)C)nc(C(C)C)c(/C=C/[C@@H](O)C[C@@H](O)CC(=O)O)c1-c1ccc(F)cc1 [CERIVASTATIN] | 8.00
25 | CC(C)c1c(-c2ccc(F)cc2)nc(-c2ccc(F)cc2)n1/C=C/[C@@H](O)C[C@@H](O)CC(=O)O | 8.05
26 | CC(C)c1cc(-c2ccccn2)c(-c2ccc(F)cc2)n1/C=C/[C@@H](O)C[C@@H](O)CC(=O)O | 8.06
27 | CNc1cccc(-c2nc(C(C)C)n(/C=C/[C@@H](O)C[C@@H](O)CC(=O)O)c2-c2ccc(F)cc2)c1 | 8.07
28 | CC(C)c1nc(-c2ccc(F)cc2)c(-c2cc(Cl)cc(Cl)c2)n1/C=C/[C@@H](O)C[C@@H](O)CC(=O)O | 8.12
29 | CC(C)c1cc(-c2ccc(F)cc2)c(-c2cccc(Br)c2)n1/C=C/[C@@H](O)C[C@@H](O)CC(=O)O | 8.15
30 | CC(C)c1cc(-c2ccc(F)cc2)c(-c2ccc(F)cc2)n1/C=C/[C@@H](O)C[C@@H](O)CC(=O)O (stereo in doubt; 19) | 8.06
31 | CC(C)c1cc(-c2ccc(F)cc2)c(-c2ccccc2)n1/C=C/[C@@H](O)C[C@@H](O)CC(=O)O | 8.12
32 | CC(C)c1c(Br)c(-c2ccc(F)cc2)c(-c2ccc(F)cc2)n1/C=C/[C@@H](O)C[C@@H](O)CC(=O)O | 8.02
33 | CCc1cc(-c2c(-c3ccc(F)cc3)nc(C(C)C)n2/C=C/[C@@H](O)C[C@@H](O)CC(=O)O)cc(CC)c1F | 8.15
